Reference: BindingDB's records for doi:10.1016/j.bmcl.2004.01.072 (Array Biopharma, 2004)

Assay: Inhibition of MDC-stimulated chemotaxis in transfected murine cell line expressing human chemokine receptor 4

Row | SMILES | EC50
1 | C[C@@H](NC(=O)C[C@H]1S[C@H](c2ccc(Cl)cc2Cl)N(CC(=O)NCCCN2CCCCC2)C1=O)c1cccc2ccccc12 [2-{(2R,5R)-2-(2,4-Dichloro-phenyl)-5-[((R)-1-naphthalen-1-yl-ethylcarbamoyl)-methyl]-4-oxo-thiazolidin-3-yl}-N-(3-piperidin-1-yl-propyl)-acetamide] | 600 nM
2 | Cc1c(Cl)cccc1CNC(=O)C[C@H]1S[C@H](c2ccc(Cl)cc2Cl)N(CC(=O)NCCCN2CCCCC2)C1=O [2-[(2R,5R)-5-[(3-Chloro-2-methyl-benzylcarbamoyl)-methyl]-2-(2,4-dichloro-phenyl)-4-oxo-thiazolidin-3-yl]-N-(3-piperidin-1-yl-propyl)-acetamide] | 2000 nM
